Measured values: PubChem BioAssay (NCI)
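Method: 48-hour compound exposure of cells in 96-well plates, five concentrations, linear interpolation of endpoints. GI50 marks 50% less growth. TGI is the concentration that stops growth completely.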

Columns and labels:
Test in all cases: DTP human tumour cell line panel, 48 h
[1] = system: COLO 205 colon
[2] = system: SR leukemia
[3] = system: CAKI-1 renal
[4] = system: NCI/ADR-RES ovarian
[5] = system: MDA-MB-231 breast
[6] = system: SK-MEL-5 melanoma
[7] = system: SK-MEL-2 melanoma
[8] = system: TK-10 renal
[9] = system: EKVX NSCLC
[10] = system: SF-268 CNS
[11] = system: MDA-MB-435
[12] = system: SF-539 CNS
[13] = system: OVCAR-3 ovarian
[14] = system: HCT-116 colon
[15] = system: HOP-62 NSCLC
[16] = system: T-47D breast
[17] = system: DU-145 prostate
[18] = system: NCI-H226 lung
[19] = system: OVCAR-5 ovarian
[20] = system: RXF 393 renal
[21] = system: MOLT-4 leukemia
[22] = system: SN12C renal
[23] = system: ACHN renal
[24] = system: NCI-H23 lung
[25] = system: MALME-3M melanoma
[26] = system: HCT-15 colon
[27] = system: U251 CNS
[28] = system: OVCAR-4 ovarian
[29] = system: HL-60(TB) leukemia
[30] = system: RPMI-8226 leukemia
[31] = system: SW-620 colon
[32] = system: M14 melanoma
[33] = system: NCI-H460 lung
[34] = system: SNB-19 CNS
[35] = system: 786-0 renal
[36] = system: SF-295 CNS
[37] = system: MCF7 breast
[38] = system: SNB-75 CNS
[39] = system: A549 NSCLC
[40] = system: HCC-2998 colon
[41] = system: KM12 colon
[42] = system: NCI-H522 lung
[43] = system: OVCAR-8 ovarian
[44] = system: K-562 leukemia
[45] = system: SK-MEL-28 melanoma
[46] = system: PC-3 prostate
[47] = system: UO-31 renal
[48] = system: BT-549 breast
[49] = system: HS 578T breast
[50] = system: SK-OV-3 ovarian
[51] = system: A498 renal
[52] = system: LOX IMVI melanoma
[53] = system: CCRF-CEM leukemia
[54] = system: IGROV1 ovarian
[55] = system: HT29 colon
[56] = system: UACC-257 melanoma
[57] = system: HOP-92 NSCLC
[58] = system: UACC-62 melanoma
[59] = system: MDA-N

`O=C(O)C1=NN(c2ccc(S(=O)(=O)O)cc2)C2(C1)SCC(=O)N2c1nc2ccccc2s1` (stereo not given) was tested, and the TGI [1] was over 100 µM, the TGI [2] was over 100 µM and the TGI [3] was over 100 µM. The TGI [4] was over 100 µM, the TGI [5] was over 100 µM and the TGI [6] was over 100 µM. For the same compound, the TGI [7] was over 100 µM, the TGI [8] was over 100 µM and the TGI [9] was over 100 µM. For the same compound, the TGI [10] was over 100 µM, the TGI [11] was over 100 µM and the TGI [12] was over 100 µM. For the same compound, the TGI [13] was over 100 µM, the TGI [14] was over 100 µM and the TGI [15] was over 100 µM. The TGI [16] was over 100 µM, the TGI [17] was over 100 µM and the TGI [18] was over 100 µM. For the same compound, the TGI [19] was over 100 µM, the TGI [20] was over 100 µM and the TGI [21] was over 100 µM. For the same compound, the TGI [22] was over 100 µM, the TGI [23] was over 100 µM and the TGI [24] was over 100 µM. It also gave a TGI [25] of over 100 µM, a TGI [26] of over 100 µM and a TGI [27] of over 100 µM. The TGI [28] was over 100 µM, the TGI [29] was over 100 µM and the TGI [30] was over 100 µM. The TGI [31] was over 100 µM, the TGI [32] was over 100 µM and the TGI [33] was over 100 µM. For the same compound, the TGI [34] was over 100 µM, the TGI [35] was over 100 µM and the TGI [36] was over 100 µM. For the same compound, the TGI [37] was over 100 µM, the TGI [38] was over 100 µM and the TGI [39] was over 100 µM. It also gave a TGI [40] of over 100 µM, a TGI [41] of over 100 µM and a TGI [42] of over 100 µM. For the same compound, the TGI [43] was over 100 µM, the TGI [44] was over 100 µM and the TGI [45] was over 100 µM. It also gave a TGI [46] of over 100 µM, a TGI [47] of over 100 µM and a TGI [48] of over 100 µM. The TGI [49] was over 100 µM, the TGI [50] was over 100 µM and the TGI [51] was over 100 µM. It also gave a TGI [52] of over 100 µM, a TGI [53] of over 100 µM and a TGI [54] of over 100 µM. It also gave a TGI [55] of over 100 µM, a TGI [56] of over 100 µM and a TGI [57] of over 100 µM. It also gave a TGI [58] of over 100 µM.
For `CCC1=[N+]([O-])C(C)(C)NC1(C)C`, the TGI [1] was over 10 µM, the TGI [3] was over 10 µM and the TGI [4] was over 10 µM. For the same compound, the TGI [5] was over 10 µM, the TGI [6] was over 10 µM and the TGI [8] was over 10 µM. It also gave a TGI [9] of over 10 µM, a TGI [10] of over 10 µM and a TGI [11] of over 10 µM. For the same compound, the TGI [12] was over 10 µM, the TGI [13] was over 10 µM and the TGI [14] was over 10 µM. The TGI [59] was over 10 µM, the TGI [17] was over 10 µM and the TGI [18] was over 10 µM. It also gave a TGI [19] of over 10 µM, a TGI [20] of over 10 µM and a TGI [22] of over 10 µM. For the same compound, the TGI [23] was over 10 µM, the TGI [24] was over 10 µM and the TGI [26] was over 10 µM. The TGI [27] was over 10 µM, the TGI [28] was over 10 µM and the TGI [31] was over 10 µM. The TGI [32] was over 10 µM, the TGI [34] was over 10 µM and the TGI [36] was over 10 µM. It also gave a TGI [38] of over 10 µM, a TGI [39] of over 10 µM and a TGI [41] of over 10 µM. The TGI [43] was over 10 µM, the TGI [45] was over 10 µM and the TGI [46] was over 10 µM. For the same compound, the TGI [54] was over 10 µM, the TGI [55] was over 10 µM and the TGI [57] was over 10 µM.
In the case of `Nc1nc(-c2ccccc2)cc(-c2ccc(Cl)cc2)c1-c1nc2ccccc2o1`, the GI50 [1] is reported as 21.4 µM, the TGI [1] is reported as 37.3 µM and the GI50 [2] is reported as 3.08 µM. The TGI [2] was 8.11 µM, the GI50 [3] was 22.9 µM and the TGI [3] was 38.6 µM. It also gave a GI50 [4] of 11.5 µM, a TGI [4] of 43.4 µM and a GI50 [5] of 6 µM. It also gave a TGI [5] of 18.9 µM, a GI50 [6] of 12.8 µM and a TGI [6] of 25.4 µM. The GI50 [7] was 18 µM, the TGI [7] was 37.9 µM and the GI50 [8] was 11.3 µM. For the same compound, the TGI [8] was 27.1 µM, the GI50 [9] was 14 µM and the TGI [9] was 27.7 µM. It also gave a GI50 [10] of 10.9 µM, a TGI [10] of 27.7 µM and a GI50 [11] of 17.6 µM. For the same compound, the TGI [11] was 35.3 µM, the GI50 [12] was 17.5 µM and the TGI [12] was 32.3 µM. The GI50 [13] was 15.7 µM, the TGI [13] was 30.8 µM and the GI50 [14] was 7.41 µM. It also gave a TGI [14] of 20.2 µM, a GI50 [15] of 22.4 µM and a TGI [15] of 37.8 µM. For the same compound, the GI50 [16] was 4.21 µM, the TGI [16] was 27.3 µM and the GI50 [17] was 12.8 µM. It also gave a TGI [17] of 26 µM, a GI50 [18] of 14.5 µM and a TGI [18] of 29.2 µM. It also gave a GI50 [19] of 21.8 µM, a TGI [19] of 42.1 µM and a GI50 [20] of 21.5 µM. For the same compound, the TGI [20] was 44.6 µM, the GI50 [21] was 5 µM and the TGI [21] was 20.3 µM. It also gave a GI50 [22] of 7.56 µM, a TGI [22] of 20 µM and a GI50 [23] of 11.1 µM. It also gave a TGI [23] of 23 µM, a GI50 [24] of 23.5 µM and a TGI [24] of over 100 µM. It also gave a GI50 [25] of 19.2 µM, a TGI [25] of 35.3 µM and a GI50 [26] of 10.4 µM. The TGI [26] was 23.2 µM, the GI50 [27] was 9.2 µM and the TGI [27] was 21 µM. The GI50 [28] was 13.5 µM, the TGI [28] was 28 µM and the GI50 [29] was 4.42 µM. It also gave a TGI [29] of 17 µM, a GI50 [30] of 4.82 µM and a TGI [30] of 19.8 µM. For the same compound, the GI50 [31] was 14.9 µM, the TGI [31] was 29.3 µM and the GI50 [32] was 14.5 µM. The TGI [32] was 35.4 µM, the GI50 [33] was 7.44 µM and the TGI [33] was 23.6 µM. The GI50 [34] was 17.7 µM, the TGI [34] was 37.9 µM and the GI50 [35] was 10.6 µM. The TGI [35] was 22.3 µM, the GI50 [36] was 20.5 µM and the TGI [36] was 37.7 µM. It also gave a GI50 [37] of 2.31 µM, a TGI [37] of 16.2 µM and a GI50 [38] of 12.9 µM. For the same compound, the TGI [38] was 26.3 µM, the GI50 [39] was 14.9 µM and the TGI [39] was 31.4 µM. The GI50 [40] was 10.3 µM, the TGI [40] was 25.8 µM and the GI50 [41] was 5.65 µM. For the same compound, the TGI [41] was 20.7 µM, the GI50 [42] was 13.5 µM and the TGI [42] was 30.6 µM. It also gave a GI50 [43] of 18.7 µM, a TGI [43] of 61.2 µM and a GI50 [44] of 10.9 µM. The TGI [44] was 29.3 µM, the GI50 [45] was 17 µM and the TGI [45] was 32.6 µM. The GI50 [46] was 2.95 µM, the TGI [46] was 14.2 µM and the GI50 [47] was 8.36 µM. It also gave a TGI [47] of 21.3 µM, a GI50 [48] of 15.5 µM and a TGI [48] of 29.7 µM. It also gave a GI50 [49] of 14.8 µM, a TGI [49] of 36.1 µM and a GI50 [50] of 15.9 µM. It also gave a TGI [50] of 30.7 µM, a GI50 [51] of 16.7 µM and a TGI [51] of 30.3 µM. It also gave a GI50 [52] of 6.04 µM, a TGI [52] of 18.4 µM and a GI50 [53] of 3.8 µM. The TGI [53] was 17 µM, the GI50 [54] was 12.9 µM and the TGI [54] was 28.5 µM. It also gave a GI50 [55] of 12 µM, a TGI [55] of 31.7 µM and a GI50 [56] of 19.5 µM. The TGI [56] was 35.1 µM, the GI50 [57] was 1.7 µM and the TGI [57] was 6.83 µM. The GI50 [58] was 16.6 µM and the TGI [58] was 30.6 µM.
